# Tests used:
# Assay type in all cases: cell-based
# [1] = test system: Human Lung Fibroblasts from a Patient with Idiopathic Pulmonary Fibrosis (IPF); assay: Procollagen and fibronectin ELISA of spent medium, IPF lung fibroblast culture; conditions: 6 days, both in the absence or presence of 0.4 ng/ml TGFβ
# Method: (§1) Human Lung Fibroblasts from a Patient with Idiopathic Pulmonary Fibrosis (IPF) (Lonza Bioscience, Cat. #CC-7231) were cultured in 96-well plates. Treatments were applied in triplicate wells (applied 100 ul treatments per well) for 6 days. Cells were near confluence at the start of treatments. […] Spent culture medium collected at the end of the treatments was assayed for procollagen and fibronectin by enzyme-linked immunosorbent assays (ELISA) (Procollagen ELISA antibody pair (ab216064) and fibronectin ELISA antibody pair (ab222262) from Abcam). Procollagen and fibronectin were not detected in medium not applied to cells. Procollagen and fibronectin levels in the medium are represented by means±SD (bars) from 3 replicate wells (open circles).
# [2] = test system: Human cardiac fibroblasts; assay: Procollagen and fibronectin ELISA of spent medium, cardiac fibroblast culture; conditions: 6 days, both in the absence or presence of 0.4 ng/ml TGFβ
# Method: as §1, with “cardiac fibroblasts” for “Lung Fibroblasts from a Patient with Idiopathic Pulmonary Fibrosis (IPF)”, “#CC-2903)” for “#CC-7231)”, “of” for “of the”
# [3] = test system: Human Lung Fibroblasts from a Patient with Idiopathic Pulmonary Fibrosis (IPF); assay: Cell viability analysis, IPF lung fibroblast culture; conditions: end of treatment (6 days)
# Method: as §1
# [4] = test system: human precision cut liver slices (PCLS); assay: PCLS Sirius red tissue fibrosis, Nonstimulation Protocol; conditions: 6 days of culture in the absence of exogenous TGFβ+PDGF-BB; most CRV431-treated slices
# Method: PCLS were obtained from 5 human donors who underwent resection of liver cancer. Replicate slices were collected from healthy margins of the resections and cultured for 4 or 6 days depending on the experimental protocol. In the Nonstimulation Protocol slices were cultured for 6 days and treated for the entire period with DMSO vehicle or 5 μM CRV431. In the Stimulation Protocol slices were rested for 1 day and then administered the cytokines, TGFβ and PDGF-BB, for 3 days to stimulate inflammation and fibrosis. […]
# Four types of evaluations were conducted on the PCLS: (a) secretion of inflammation and fibrosis biomarkers into the culture medium, (b) histological staining and quantitation of Sirius red as a measure of tissue fibrosis, (c) gene expression of inflammation and fibrosis biomarkers by RT-PCR, and (d) RNA sequencing (RNA-Seq) of the complete transcriptome. […] ELISAs were used to quantify secretion of monocyte chemoattractant protein (MCP-1), interleukin-6 (IL-6), tissue inhibitor of metalloproteinase-1 (TIMP1), hyaluronic acid, fibronectin, and collagen 1α1. For each donor the mean level of biomarker secretion in each treatment group was expressed as a percentage change relative to DMSO vehicle, the percentages averaged for all donors, and finally the mean daily percentage change calculated from all days of evaluation. […]
# [5] = test system: Human adult dermal fibroblasts; assay: Procollagen and fibronectin ELISA of spent medium, dermal fibroblast culture; conditions: medium from Day 1-2 of treatment, in the absence or presence of 10 ng/ml EGF or 0.4 ng/ml TGFβ
# Method: as §1, with “adult dermal fibroblasts” for “Lung Fibroblasts from a Patient with Idiopathic Pulmonary Fibrosis (IPF)”, “#CC-2511)” for “#CC-7231)”, “1 day, then re-applied for one additional day.” for “6 days.”, “from Day 1-2” for “at the end”, “treatment” for “the treatments”, “circles). […].” for “circles).”
# [6] = test system: Human cardiac fibroblasts; assay: Cell viability analysis, cardiac fibroblast culture; conditions: end of treatment (6 days)
# Method: as §1, with “cardiac fibroblasts” for “Lung Fibroblasts from a Patient with Idiopathic Pulmonary Fibrosis (IPF)”, “#CC-2903)” for “#CC-7231)”, “of” for “of the”
# [7] = test system: Human adult dermal fibroblasts; assay: Cell viability analysis, dermal fibroblast culture; conditions: end of 4 days of treatment (so in the source)
smiles,measurement,setting,value
CC[C@@H]1NC(=O)[C@H]([C@H](O)[C@H](C)CCCCCCNC(C)=O)N(C)C(=O)[C@H](C(C)C)N(C)C(=O)[C@H](CC(C)C)N(C)C(=O)[C@H](CC(C)C)N(C)C(=O)[C@@H](C)NC(=O)[C@H](C)NC(=O)[C@H](CC(C)C)N(C)C(=O)[C@H](C(C)C)NC(=O)[C@H](CC(C)C)N(C)C(=O)[C@@H](C)N(C)C1=O [CRV431],abundance of fibronectin in the medium,[1],dose-dependently decreased
same,abundance of procollagen in the medium,[1],dose-dependently decreased
same,abundance of fibronectin in the medium,[2],dose-dependently decreased
same,abundance of procollagen in the medium,[2],dose-dependently decreased
same,cell viability,[3],none of the CRV431 treatments affected cell viability
same,tissue fibrosis vs vehicle-treated slices,[4],less fibrosis than vehicle-treated slices
same,abundance of fibronectin in the medium,[5],dose-dependently decreased
same,abundance of procollagen in the medium,[5],dose-dependently decreased
same,cell viability,[6],none of the CRV431 treatments affected cell viability
same,cell viability,[7],none of the CRV431 treatments affected cell viability
